Legend:
[1] = test system: Human Herpesvirus Type 6A (HHV-6A); assay: Antiviral test against HHV-6A in Sup-T1 cells, TaqMan PCR; type: cell-based
Description: [Antiviral Test Against HHV-6A]
An antiviral test against HHV-6A using Compound 1 was performed by the following procedure.
Virus strain: Human Herpesvirus Type 6A (HHV-6A)
Medium: RPMI-1640+10% FBS+1% penicillin/streptomycin
Detection method: TaqMan PCR
Sup-T1 cells were cultured at a concentration of 1×10^6/ml, Compound 1, 3 μM, was added, and one hour after, HHV-6A virus (1×10^4 infectious units) were sensitized (or unsensitized cells were prepared as a negative control).
After culturing at 37° C. for two hours, the medium was replaced, and Compound 1 was added again. Three days after, 500 μl of the medium was sampled, and HHV-6A virus was quantified by TaqMan PCR. Statistical analysis was performed by Student's t-test.

[2] = Tissue distribution of radioactivity after single intravenous administration of 14C-labeled Compound 1 (blood-brain barrier penetration); type: in vivo; settings: rats, single iv 5 mg/kg 14C-labeled, n = 3
Description: [Testing the Penetration of the Compound Through the Blood-Brain Barrier]
Brain permeability (intracerebral transferability) of Compound 1 was evaluated.
^14C-labeled Compound 1 was intravenously administered once in a dose of 5 mg/kg (3.52 MBq/kg) to rats, and histological distribution (biodistribution) thereof was studied.

## Fc1ccc(N2CCCCC2)c(NC(=S)c2ccncc2)c1 [Compound 1]
[1]; 3 μM, in words
  Effect of suppressing growth of HHV-6A: effect of suppressing growth of HHV-6A in the Compound 1-treated group was confirmed
[1]; Compound 1 3 μM, medium sampled three days after, TaqMan PCR
  HHV-6A copy number: 6767.59
[2]; Adrenal gland, 5 min
  Radioactivity concentration: 47334.91 ng eq. of Compound 1/g or mL
[2]; Adrenal gland, 6 h
  Radioactivity concentration: 1517.3 ng eq. of Compound 1/g or mL
[2]; Adrenal gland, 24 h
  Radioactivity concentration: 195.16 ng eq. of Compound 1/g or mL
[2]; Adrenal gland, 72 h
  Radioactivity concentration: 23.21 ng eq. of Compound 1/g or mL
[2]; Aorta, 5 min
  Radioactivity concentration: 1995.27 ng eq. of Compound 1/g or mL
[2]; Aorta, 6 h
  Radioactivity concentration: 730.03 ng eq. of Compound 1/g or mL
[2]; Aorta, 24 h
  Radioactivity concentration: 76.22 ng eq. of Compound 1/g or mL
[2]; Bonemarrow, 5 min
  Radioactivity concentration: 6109.89 ng eq. of Compound 1/g or mL
[2]; Bonemarrow, 6 h
  Radioactivity concentration: 900.75 ng eq. of Compound 1/g or mL
[2]; Bonemarrow, 24 h
  Radioactivity concentration: 106.7 ng eq. of Compound 1/g or mL
[2]; Brown fat, 5 min
  Radioactivity concentration: 8467.9 ng eq. of Compound 1/g or mL
[2]; Brown fat, 6 h
  Radioactivity concentration: 6412.21 ng eq. of Compound 1/g or mL
[2]; Brown fat, 24 h
  Radioactivity concentration: 217.43 ng eq. of Compound 1/g or mL
[2]; Brown fat, 72 h
  Radioactivity concentration: 11.3 ng eq. of Compound 1/g or mL
[2]; Cecum, 5 min
  Radioactivity concentration: 5555.55 ng eq. of Compound 1/g or mL
[2]; Cecum, 6 h
  Radioactivity concentration: 3979.48 ng eq. of Compound 1/g or mL
[2]; Epididymis, 5 min
  Radioactivity concentration: 2568.88 ng eq. of Compound 1/g or mL
[2]; Epididymis, 6 h
  Radioactivity concentration: 1809.29 ng eq. of Compound 1/g or mL
[2]; Epididymis, 24 h
  Radioactivity concentration: 312.66 ng eq. of Compound 1/g or mL
[2]; Epididymis, 72 h
  Radioactivity concentration: 21.99 ng eq. of Compound 1/g or mL
[2]; Eyeball, 5 min
  Radioactivity concentration: 1785.93 ng eq. of Compound 1/g or mL
[2]; Eyeball, 6 h
  Radioactivity concentration: 960.39 ng eq. of Compound 1/g or mL
[2]; Eyeball, 24 h
  Radioactivity concentration: 117.64 ng eq. of Compound 1/g or mL
[2]; Eyeball, 72 h
  Radioactivity concentration: 7.03 ng eq. of Compound 1/g or mL
[2]; Fat, 5 min
  Radioactivity concentration: 1181.88 ng eq. of Compound 1/g or mL
[2]; Fat, 6 h
  Radioactivity concentration: 5031.8 ng eq. of Compound 1/g or mL
[2]; Fat, 24 h
  Radioactivity concentration: 1665.35 ng eq. of Compound 1/g or mL
[2]; Fat, 72 h
  Radioactivity concentration: 112.35 ng eq. of Compound 1/g or mL
[2]; Harderian gland, 5 min
  Radioactivity concentration: 12633.83 ng eq. of Compound 1/g or mL
[2]; Harderian gland, 6 h
  Radioactivity concentration: 1418.19 ng eq. of Compound 1/g or mL
[2]; Harderian gland, 24 h
  Radioactivity concentration: 131.47 ng eq. of Compound 1/g or mL
[2]; Harderian gland, 72 h
  Radioactivity concentration: 8.95 ng eq. of Compound 1/g or mL
[2]; Heart, 5 min
  Radioactivity concentration: 8604.53 ng eq. of Compound 1/g or mL
[2]; Heart, 6 h
  Radioactivity concentration: 912.54 ng eq. of Compound 1/g or mL
[2]; Heart, 24 h
  Radioactivity concentration: 105.78 ng eq. of Compound 1/g or mL
[2]; Heart, 72 h
  Radioactivity concentration: 10.01 ng eq. of Compound 1/g or mL
[2]; Kidney, 5 min
  Radioactivity concentration: 13230.64 ng eq. of Compound 1/g or mL
[2]; Kidney, 6 h
  Radioactivity concentration: 2138.26 ng eq. of Compound 1/g or mL
[2]; Kidney, 24 h
  Radioactivity concentration: 264.55 ng eq. of Compound 1/g or mL
[2]; Kidney, 72 h
  Radioactivity concentration: 31.5 ng eq. of Compound 1/g or mL
[2]; Kidney, 168 h
  Radioactivity concentration: 12.02 ng eq. of Compound 1/g or mL
[2]; Liver, 5 min
  Radioactivity concentration: 29518.18 ng eq. of Compound 1/g or mL
[2]; Liver, 6 h
  Radioactivity concentration: 3033.96 ng eq. of Compound 1/g or mL
[2]; Liver, 24 h
  Radioactivity concentration: 740.19 ng eq. of Compound 1/g or mL
[2]; Liver, 72 h
  Radioactivity concentration: 180.72 ng eq. of Compound 1/g or mL
[2]; Liver, 168 h
  Radioactivity concentration: 48.2 ng eq. of Compound 1/g or mL
[2]; Lung, 5 min
  Radioactivity concentration: 7645.96 ng eq. of Compound 1/g or mL
[2]; Lung, 6 h
  Radioactivity concentration: 1247.84 ng eq. of Compound 1/g or mL
[2]; Lung, 24 h
  Radioactivity concentration: 175.43 ng eq. of Compound 1/g or mL
[2]; Lung, 72 h
  Radioactivity concentration: 33.55 ng eq. of Compound 1/g or mL
[2]; Lung, 168 h
  Radioactivity concentration: 12.98 ng eq. of Compound 1/g or mL
